Reference: the kinase profiling compilation of Christmann-Franck et al. (2016)

How the values were obtained:
Test in all cases: KINOMEscan competition binding
Settings in all cases: compound 10.0 µM
[1] = biological target: FYN (human) (UniProt P06241)
[2] = biological target: MARK4 (human) (UniProt Q96L34)
[3] = biological target: MAP3K13 (human) (UniProt O43283)
[4] = biological target: PTK2 (human) (UniProt Q05397)
[5] = biological target: TYRO3 (human) (UniProt Q06418)
[6] = biological target: CDK4 CCND1 (human) (UniProt P11802+P24385)
[7] = biological target: WEE2 (human) (UniProt P0C1S8)
[8] = biological target: PRKCQ (human) (UniProt Q04759)
[9] = biological target: ACVR1B (human) (UniProt P36896)
[10] = biological target: TIE1 (human) (UniProt P35590)
[11] = biological target: IGF1R (human) (UniProt P08069)
[12] = biological target: RPS6KA1 KD2 (human) (UniProt Q15418)
[13] = biological target: CDC42BPB (human) (UniProt Q9Y5S2)
[14] = biological target: MAP4K1 (human) (UniProt Q92918)
[15] = biological target: MAPKAPK2 (human) (UniProt P49137)
[16] = biological target: CLK2 (human) (UniProt P49760)
[17] = biological target: HIPK1 (human) (UniProt Q86Z02)
[18] = biological target: OXSR1 (human) (UniProt O95747)
[19] = biological target: MAP4K3 (human) (UniProt Q8IVH8)
[20] = biological target: EPHA3 (human) (UniProt P29320)
[21] = biological target: STK36 (human) (UniProt Q9NRP7)
[22] = biological target: PRKACB (human) (UniProt P22694)
[23] = biological target: PIK3C2B (human) (UniProt O00750)
[24] = biological target: IRAK4 (human) (UniProt Q9NWZ3)
[25] = biological target: STK25 (human) (UniProt O00506)
[26] = biological target: CSK (human) (UniProt P41240)
[27] = biological target: BMPR2 (human) (UniProt Q13873)
[28] = biological target: CDKL5 (human) (UniProt O76039)
[29] = biological target: MAP2K1 (human) (UniProt Q02750)
[30] = biological target: PAK3 (human) (UniProt O75914)
[31] = biological target: PIP5K1A (human) (UniProt Q99755)
[32] = biological target: MAPK15 (human) (UniProt Q8TD08)
[33] = biological target: PRKCD (human) (UniProt Q05655)
[34] = biological target: STK32C (human) (UniProt Q86UX6)
[35] = biological target: CDK16 (human) (UniProt Q00536)
[36] = biological target: SRPK1 (human) (UniProt Q96SB4)
[37] = biological target: TAOK2 (human) (UniProt Q9UL54)
[38] = biological target: FGR (human) (UniProt P09769)
[39] = biological target: PIP4K2C (human) (UniProt Q8TBX8)
[40] = biological target: TRPM6 (human) (UniProt Q9BX84)

PRKCQ (human), sequence (Q04759 whole entry, looked up): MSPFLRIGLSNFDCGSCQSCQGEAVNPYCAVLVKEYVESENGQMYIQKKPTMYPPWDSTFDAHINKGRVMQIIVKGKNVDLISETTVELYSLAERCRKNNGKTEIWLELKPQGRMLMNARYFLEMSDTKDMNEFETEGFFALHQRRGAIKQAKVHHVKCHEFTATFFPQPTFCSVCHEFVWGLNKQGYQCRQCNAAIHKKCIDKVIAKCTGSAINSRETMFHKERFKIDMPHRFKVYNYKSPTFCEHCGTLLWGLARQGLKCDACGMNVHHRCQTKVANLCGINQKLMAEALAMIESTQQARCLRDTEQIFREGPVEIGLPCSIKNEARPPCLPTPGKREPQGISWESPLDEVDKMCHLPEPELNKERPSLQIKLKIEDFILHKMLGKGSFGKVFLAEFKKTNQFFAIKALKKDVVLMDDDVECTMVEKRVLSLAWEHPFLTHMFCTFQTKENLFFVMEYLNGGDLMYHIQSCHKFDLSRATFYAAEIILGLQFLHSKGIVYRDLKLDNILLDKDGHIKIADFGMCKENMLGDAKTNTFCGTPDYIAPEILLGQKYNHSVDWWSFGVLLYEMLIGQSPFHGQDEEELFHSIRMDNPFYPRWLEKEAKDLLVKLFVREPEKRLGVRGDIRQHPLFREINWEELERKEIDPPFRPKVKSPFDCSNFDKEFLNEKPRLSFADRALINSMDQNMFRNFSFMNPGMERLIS
FGR (human), sequence (P09769 whole entry, looked up): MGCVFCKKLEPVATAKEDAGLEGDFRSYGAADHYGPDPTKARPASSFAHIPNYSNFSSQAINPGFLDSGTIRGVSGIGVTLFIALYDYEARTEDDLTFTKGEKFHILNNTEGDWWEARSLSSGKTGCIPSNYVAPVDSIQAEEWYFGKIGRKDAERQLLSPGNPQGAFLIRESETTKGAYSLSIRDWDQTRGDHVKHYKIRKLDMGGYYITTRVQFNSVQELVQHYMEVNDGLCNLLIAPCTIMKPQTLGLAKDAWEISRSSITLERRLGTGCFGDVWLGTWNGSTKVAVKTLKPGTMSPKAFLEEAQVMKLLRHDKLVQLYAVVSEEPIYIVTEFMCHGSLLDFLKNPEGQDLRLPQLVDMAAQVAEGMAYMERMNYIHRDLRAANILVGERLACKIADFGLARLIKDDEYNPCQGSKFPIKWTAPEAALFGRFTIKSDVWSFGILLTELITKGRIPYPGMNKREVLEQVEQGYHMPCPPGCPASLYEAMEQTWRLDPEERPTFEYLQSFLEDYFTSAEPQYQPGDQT
PTK2 (human), sequence (Q05397 whole entry, looked up): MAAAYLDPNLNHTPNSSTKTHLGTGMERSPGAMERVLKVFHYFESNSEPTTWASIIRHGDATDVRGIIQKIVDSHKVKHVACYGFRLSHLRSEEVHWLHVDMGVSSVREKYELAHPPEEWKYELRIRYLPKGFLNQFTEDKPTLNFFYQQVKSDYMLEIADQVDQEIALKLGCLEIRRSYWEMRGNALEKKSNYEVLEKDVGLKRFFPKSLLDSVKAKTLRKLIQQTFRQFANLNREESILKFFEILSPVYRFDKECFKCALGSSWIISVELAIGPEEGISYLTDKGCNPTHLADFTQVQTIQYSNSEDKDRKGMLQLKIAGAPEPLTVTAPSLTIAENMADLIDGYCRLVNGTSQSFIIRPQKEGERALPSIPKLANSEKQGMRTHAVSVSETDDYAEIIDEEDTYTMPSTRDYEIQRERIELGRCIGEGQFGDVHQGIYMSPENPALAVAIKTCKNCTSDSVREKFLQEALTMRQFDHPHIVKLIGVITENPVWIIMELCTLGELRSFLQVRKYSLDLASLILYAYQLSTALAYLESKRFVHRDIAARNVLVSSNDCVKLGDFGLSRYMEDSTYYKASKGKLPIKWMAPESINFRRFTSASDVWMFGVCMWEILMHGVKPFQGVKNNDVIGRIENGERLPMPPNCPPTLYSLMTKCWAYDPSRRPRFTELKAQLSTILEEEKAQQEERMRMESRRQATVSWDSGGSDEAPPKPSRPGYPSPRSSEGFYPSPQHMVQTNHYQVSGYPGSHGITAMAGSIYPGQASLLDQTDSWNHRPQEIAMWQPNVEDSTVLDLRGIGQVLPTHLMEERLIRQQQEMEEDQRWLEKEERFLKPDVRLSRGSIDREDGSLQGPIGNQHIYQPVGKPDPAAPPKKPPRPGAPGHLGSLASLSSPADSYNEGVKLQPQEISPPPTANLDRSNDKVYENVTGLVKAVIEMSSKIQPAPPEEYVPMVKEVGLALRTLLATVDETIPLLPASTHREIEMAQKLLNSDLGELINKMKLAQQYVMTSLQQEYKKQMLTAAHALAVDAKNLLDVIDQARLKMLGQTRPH
PAK3 (human), sequence (O75914 whole entry, looked up): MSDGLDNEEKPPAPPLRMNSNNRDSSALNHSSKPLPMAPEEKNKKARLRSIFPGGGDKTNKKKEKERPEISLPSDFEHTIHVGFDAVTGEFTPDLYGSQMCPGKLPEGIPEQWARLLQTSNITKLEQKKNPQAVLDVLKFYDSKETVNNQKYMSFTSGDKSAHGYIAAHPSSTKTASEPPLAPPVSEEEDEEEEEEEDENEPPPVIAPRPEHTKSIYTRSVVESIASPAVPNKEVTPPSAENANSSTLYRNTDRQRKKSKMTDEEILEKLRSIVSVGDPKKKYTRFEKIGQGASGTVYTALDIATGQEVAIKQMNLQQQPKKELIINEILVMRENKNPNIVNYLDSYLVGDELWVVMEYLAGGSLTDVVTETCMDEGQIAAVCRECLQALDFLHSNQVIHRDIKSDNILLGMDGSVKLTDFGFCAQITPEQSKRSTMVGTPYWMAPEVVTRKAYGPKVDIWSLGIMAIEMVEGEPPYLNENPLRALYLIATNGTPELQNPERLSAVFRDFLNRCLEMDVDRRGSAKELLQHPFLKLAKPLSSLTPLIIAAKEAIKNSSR
IRAK4 (human), sequence (Q9NWZ3 whole entry, looked up): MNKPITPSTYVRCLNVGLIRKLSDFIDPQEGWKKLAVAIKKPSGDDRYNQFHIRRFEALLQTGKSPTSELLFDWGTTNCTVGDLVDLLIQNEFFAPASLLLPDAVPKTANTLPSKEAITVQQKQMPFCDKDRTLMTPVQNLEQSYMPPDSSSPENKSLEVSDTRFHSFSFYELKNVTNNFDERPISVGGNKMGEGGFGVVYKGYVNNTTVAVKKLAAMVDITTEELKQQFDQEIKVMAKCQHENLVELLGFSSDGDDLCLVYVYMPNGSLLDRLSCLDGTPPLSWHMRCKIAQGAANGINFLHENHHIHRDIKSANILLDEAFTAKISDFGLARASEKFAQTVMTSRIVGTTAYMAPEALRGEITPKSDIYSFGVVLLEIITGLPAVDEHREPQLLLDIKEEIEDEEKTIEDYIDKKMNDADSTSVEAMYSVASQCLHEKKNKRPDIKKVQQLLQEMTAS
SRPK1 (human), sequence (Q96SB4 whole entry, looked up): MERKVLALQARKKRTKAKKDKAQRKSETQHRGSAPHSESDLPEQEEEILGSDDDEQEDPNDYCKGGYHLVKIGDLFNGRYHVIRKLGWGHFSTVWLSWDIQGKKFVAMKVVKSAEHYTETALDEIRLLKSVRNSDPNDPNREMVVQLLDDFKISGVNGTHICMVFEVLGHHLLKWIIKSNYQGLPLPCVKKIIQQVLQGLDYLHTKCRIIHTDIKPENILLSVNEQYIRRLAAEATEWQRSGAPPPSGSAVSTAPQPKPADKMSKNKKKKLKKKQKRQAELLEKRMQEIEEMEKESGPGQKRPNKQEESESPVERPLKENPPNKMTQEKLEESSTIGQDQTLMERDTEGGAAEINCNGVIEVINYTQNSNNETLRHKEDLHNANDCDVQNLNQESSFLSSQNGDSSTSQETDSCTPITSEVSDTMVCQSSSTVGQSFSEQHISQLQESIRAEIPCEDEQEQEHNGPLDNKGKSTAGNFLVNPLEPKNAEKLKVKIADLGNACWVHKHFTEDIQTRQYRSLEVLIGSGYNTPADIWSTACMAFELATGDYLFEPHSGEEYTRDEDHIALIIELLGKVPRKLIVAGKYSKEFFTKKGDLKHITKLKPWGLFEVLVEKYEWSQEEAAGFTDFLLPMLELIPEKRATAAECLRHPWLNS
FYN (human), sequence (P06241 whole entry, looked up): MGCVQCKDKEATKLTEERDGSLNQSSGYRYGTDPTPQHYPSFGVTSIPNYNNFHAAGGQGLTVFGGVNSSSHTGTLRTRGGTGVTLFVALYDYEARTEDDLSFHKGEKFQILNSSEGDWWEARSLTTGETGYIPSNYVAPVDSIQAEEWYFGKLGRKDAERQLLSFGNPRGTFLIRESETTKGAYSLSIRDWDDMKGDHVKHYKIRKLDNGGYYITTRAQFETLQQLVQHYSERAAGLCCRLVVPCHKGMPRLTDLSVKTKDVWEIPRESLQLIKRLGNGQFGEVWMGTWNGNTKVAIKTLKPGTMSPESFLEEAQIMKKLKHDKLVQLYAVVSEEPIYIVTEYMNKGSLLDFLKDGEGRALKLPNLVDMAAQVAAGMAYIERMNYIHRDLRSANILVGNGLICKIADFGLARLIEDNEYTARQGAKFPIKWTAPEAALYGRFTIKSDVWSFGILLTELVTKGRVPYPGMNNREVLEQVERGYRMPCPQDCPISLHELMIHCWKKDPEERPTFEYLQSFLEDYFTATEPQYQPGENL
CDK16 (human), sequence (Q00536 whole entry, looked up): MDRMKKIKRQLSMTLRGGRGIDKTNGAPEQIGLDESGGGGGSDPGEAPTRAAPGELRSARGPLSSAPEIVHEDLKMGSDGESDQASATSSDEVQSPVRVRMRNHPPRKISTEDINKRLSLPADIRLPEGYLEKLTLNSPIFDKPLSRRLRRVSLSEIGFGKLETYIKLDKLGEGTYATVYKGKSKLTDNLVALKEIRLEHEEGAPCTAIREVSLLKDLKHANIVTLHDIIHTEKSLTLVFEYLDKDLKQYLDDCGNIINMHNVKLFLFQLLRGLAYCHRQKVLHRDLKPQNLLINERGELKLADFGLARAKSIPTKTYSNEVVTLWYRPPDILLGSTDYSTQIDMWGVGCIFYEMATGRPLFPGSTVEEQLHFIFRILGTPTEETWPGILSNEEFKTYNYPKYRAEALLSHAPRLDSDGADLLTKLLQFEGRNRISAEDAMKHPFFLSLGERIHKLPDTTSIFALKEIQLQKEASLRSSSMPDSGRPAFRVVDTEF

Structure (SMILES) | kinase still bound, per cent of control [1] | kinase still bound, per cent of control [2] | kinase still bound, per cent of control [3] | kinase still bound, per cent of control [4] | kinase still bound, per cent of control [5] | kinase still bound, per cent of control [6] | kinase still bound, per cent of control [7] | kinase still bound, per cent of control [8] | kinase still bound, per cent of control [9] | kinase still bound, per cent of control [10] | kinase still bound, per cent of control [11] | kinase still bound, per cent of control [12] | kinase still bound, per cent of control [13] | kinase still bound, per cent of control [14] | kinase still bound, per cent of control [15] | kinase still bound, per cent of control [16] | kinase still bound, per cent of control [17] | kinase still bound, per cent of control [18] | kinase still bound, per cent of control [19] | kinase still bound, per cent of control [20] | also measured
C=CC(=O)Nc1ccc(C(=O)c2sc(Nc3ccc(N4CCN(C)CC4)cc3OC)nc2N)cc1 | 83% | 85% | 100% | 51% | 100% | 10% | 100% | 93% | 100% | 67% | 86% | 0.3% | 100% | 84% | 99% | 0% | 15% | 10% | 60% | 80% | kinase still bound, per cent of control [21]: 90%; kinase still bound, per cent of control [22]: 92%; kinase still bound, per cent of control [23]: 100%; kinase still bound, per cent of control [24]: 92%; kinase still bound, per cent of control [25]: 100%; kinase still bound, per cent of control [26]: 87%; kinase still bound, per cent of control [27]: 100%; kinase still bound, per cent of control [28]: 74%; kinase still bound, per cent of control [29]: 100%; kinase still bound, per cent of control [30]: 100%; kinase still bound, per cent of control [31]: 34%; kinase still bound, per cent of control [32]: 75%; kinase still bound, per cent of control [33]: 100%; kinase still bound, per cent of control [34]: 84%; kinase still bound, per cent of control [35]: 67%; kinase still bound, per cent of control [36]: 71%; kinase still bound, per cent of control [37]: 20%; kinase still bound, per cent of control [38]: 91%; kinase still bound, per cent of control [39]: 20%; kinase still bound, per cent of control [40]: 35%
CNC(=O)Nc1ccc(-c2nc(N3CC4CCC(C3)O4)c3cnn(C4CCC5(CC4)OCCO5)c3n2)cc1 | 70% | 94% | 82% | 78% | 100% | 90% | 100% | 100% | 100% | 98% | 93% | 91% | 100% | 94% | 82% | 98% | 100% | 100% | 94% | 100% | kinase still bound, per cent of control [21]: 96%; kinase still bound, per cent of control [22]: 87%; kinase still bound, per cent of control [23]: 25%; kinase still bound, per cent of control [24]: 100%; kinase still bound, per cent of control [25]: 91%; kinase still bound, per cent of control [26]: 100%; kinase still bound, per cent of control [27]: 83%; kinase still bound, per cent of control [28]: 79%; kinase still bound, per cent of control [29]: 100%; kinase still bound, per cent of control [30]: 99%; kinase still bound, per cent of control [31]: 84%; kinase still bound, per cent of control [32]: 25%; kinase still bound, per cent of control [33]: 100%; kinase still bound, per cent of control [34]: 90%; kinase still bound, per cent of control [35]: 100%; kinase still bound, per cent of control [36]: 100%; kinase still bound, per cent of control [37]: 100%; kinase still bound, per cent of control [38]: 100%; kinase still bound, per cent of control [39]: 100%; kinase still bound, per cent of control [40]: 100%
